Laboratory results taken from ChEMBL document CHEMBL1201862, “PubChem BioAssay data set” (2004).
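48-hour exposure; five concentrations; linearly interpolated endpoints. GI50 marks 50% less growth.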 Calls of active or inactive are those of the source. Cut-off read from the data, not from the text of the source: active = GI50 up to about 1.1 µM and inactive = higher.

Columns and labels:
Assay in all cases: NCI tumour cell line growth inhibition, 48 h
[1] = test system: MDA-MB-231
[2] = test system: ACHN
[3] = test system: UACC-62
[4] = test system: HOP-92
[5] = test system: DU-145
[6] = test system: LOX IMVI
[7] = test system: SK-MEL-5
[8] = test system: SNB-75
[9] = test system: SF-268
[10] = test system: Malme-3M
[11] = test system: KM12
[12] = test system: CAKI-1
[13] = test system: HCC 2998
[14] = test system: NCI-H226
[15] = test system: COLO 205
[16] = test system: SR
[17] = test system: HCT-116
[18] = test system: RXF 393
[19] = test system: UACC-257
[20] = test system: NCI/ADR-RES

Measured: GI50

O=C(O)c1nn(-c2ccc(Cl)cc2)c2c1C(=O)c1ccccc1C2=O
inactive: [1] 41.3 µM | [2] > 100 µM | [3] > 100 µM | [4] > 100 µM | [5] > 100 µM | [6] > 100 µM | [7] 20.5 µM | [8] 22.8 µM | [9] > 100 µM | [10] 5.42 µM | [11] > 100 µM | [12] > 100 µM | [13] 43.1 µM | [14] > 100 µM | [15] > 100 µM | [16] 21.2 µM | [17] > 100 µM | [18] 17.5 µM | [19] > 100 µM | [20] > 100 µM

O=C(O)CSSCC(=O)O
inactive: [1] > 100 µM | [2] > 100 µM | [3] > 100 µM | [4] > 100 µM | [5] > 100 µM | [6] > 100 µM | [7] > 100 µM | [8] > 100 µM | [9] > 100 µM | [10] > 100 µM | [11] > 100 µM | [12] > 100 µM | [13] > 100 µM | [14] > 100 µM | [15] > 100 µM | [16] > 100 µM | [17] > 100 µM | [18] > 100 µM | [19] > 100 µM | [20] > 100 µM

CN(C)CCC(=O)[C@@]1(O)CC[C@H]2[C@@H]3CC=C4C[C@@H](O)CC[C@]4(C)[C@H]3CC[C@@]21C
inactive: [1] 18.5 µM | [2] 16.1 µM | [3] 16.7 µM | [4] 20.9 µM | [5] 6.65 µM | [6] 13.7 µM | [7] 29.9 µM | [8] 15.2 µM | [9] 16.9 µM | [10] 15.3 µM | [11] 15.1 µM | [12] 17.5 µM | [13] 21.3 µM | [14] 62.8 µM | [15] 18.4 µM | [16] 12.6 µM | [17] 18 µM | [18] 9.2 µM | [19] 13.3 µM | [20] 26.7 µM

COc1ccc(-c2cc(-c3ccccc3)nc(/N=C\c3ccccc3)n2)c(O)c1
inactive: [1] > 31.3 µM | [2] 6.47 µM | [3] > 27.7 µM | [4] > 100 µM | [5] 7.62 µM | [6] 8.05 µM | [7] 7.05 µM | [8] > 100 µM | [9] > 93.5 µM | [10] > 80.4 µM | [11] 5.9 µM | [12] 3.02 µM | [13] > 100 µM | [14] > 100 µM | [15] > 100 µM | [16] 3.68 µM | [17] > 26.6 µM | [18] > 100 µM | [19] > 100 µM | [20] > 86.5 µM

CCOP(=O)(OCC)OC1c2[nH]cc(C(=O)OCc3ccccc3)c2-c2cc(C(=O)OC)[nH]c2C1OC (stereo not given)
inactive: [1] 2.91 µM | [2] 4.66 µM | [3] 7.05 µM | [4] 4.28 µM | [5] 11 µM | [6] 4.56 µM | [7] 7.46 µM | [8] 13.2 µM | [9] 12.5 µM | [10] 9.06 µM | [11] 7.96 µM | [12] 20.2 µM | [13] 6.85 µM | [14] 16.1 µM | [15] 6.89 µM | [16] 7.6 µM | [17] 6.4 µM | [18] 8.18 µM | [19] 6.79 µM | [20] 7.53 µM

CC(C)CC1NC(=O)CCC(NC(=O)C(Cc2ccc(O)cc2)NC(=O)OCc2ccccc2)C(=O)NC(Cc2ccccc2)C(=O)NC(Cc2ccccc2)NC1=O (stereo not given)
inactive: [1] > 100 µM | [2] > 100 µM | [3] > 100 µM | [4] > 100 µM | [5] > 100 µM | [6] > 100 µM | [7] > 100 µM | [8] > 100 µM | [9] > 100 µM | [10] > 100 µM | [11] > 100 µM | [12] > 100 µM | [13] > 100 µM | [14] > 100 µM | [15] > 100 µM | [16] > 100 µM | [17] > 100 µM | [18] > 100 µM | [19] > 100 µM | [20] > 100 µM

CC(Oc1ccccc1Cl)C(=O)NN1C(=O)CC(=O)NC1=S (stereo not given)
inactive: [1] > 100 µM | [2] 63.7 µM | [3] 46.1 µM | [4] > 100 µM | [5] > 100 µM | [6] 61.9 µM | [7] > 100 µM | [8] > 100 µM | [9] > 100 µM | [10] > 100 µM | [11] 83.8 µM | [12] > 100 µM | [13] > 100 µM | [14] > 100 µM | [15] > 100 µM | [16] > 100 µM | [17] > 100 µM | [18] > 100 µM | [19] > 100 µM | [20] > 100 µM

CCCCn1c2c(n(CCCC)c1=[Se])-c1c(n(CCCC)c(=[Se])n1CCCC)S[Se][Se]S2
inactive: [1] 14.5 µM | [2] 12 µM | [3] 17.8 µM | [4] 2.01 µM | [5] 25 µM | [6] 16.5 µM | [7] 16.6 µM | [8] 20.6 µM | [9] 32.7 µM | [10] 3.52 µM | [11] 27.2 µM | [12] 5.3 µM | [13] 30.4 µM | [14] 6.52 µM | [15] 8.65 µM | [16] 20.7 µM | [17] 22.8 µM | [18] 21.8 µM | [19] 32.8 µM | [20] 19.5 µM

O=C(/C=C/c1ccc(-c2ccccc2)cc1)NCc1ccc(C(=O)NCCc2ccccc2)cc1
inactive: [1] 38.1 µM | [2] > 100 µM | [3] > 100 µM | [4] 54.6 µM | [5] > 100 µM | [6] 41.1 µM | [7] > 100 µM | [8] 49.3 µM | [9] > 100 µM | [10] 31.6 µM | [11] > 100 µM | [12] > 100 µM | [13] > 100 µM | [14] > 100 µM | [15] > 100 µM | [16] 44.8 µM | [17] 34.4 µM | [18] 24.5 µM | [19] > 100 µM | [20] > 100 µM

O=C1C(CN2CCCC2)CCC1CN1CCCC1 (stereo not given)
inactive: [1] 13.5 µM | [2] 15.8 µM | [3] 17.5 µM | [4] 14.4 µM | [5] 97.3 µM | [6] 20.8 µM | [7] 17.3 µM | [8] 17.9 µM | [9] 20.8 µM | [10] 15.1 µM | [11] > 100 µM | [12] 11 µM | [13] > 100 µM | [14] > 48.2 µM | [15] 5.71 µM | [16] 12.9 µM | [17] 17.5 µM | [18] 20.4 µM | [19] 16.8 µM | [20] 23.9 µM
